Data set [1] concerns Plasmodium falciparum 3D7 (chloroquine-sensitive strain). The data set is described as follows: microbe, parasite or virus in culture. The class given is cell-based. On the procedure:
For the in vitro study of the antimalarial activity against P. falciparum D7, two stock solutions were prepared: solution A (dilution of powder sample) at 20 mM and solution B at 1 mM (made by dilution of solution A). Next, the compounds were diluted 100-fold (drug solution=10 μM), then, suitable volume of drug solution was transferred in the SYBR GREEN assay plate (final concentration=10-0.15 μM). However, due to the high potency of the samples, the initial concentration was reduced in order to determine the EC50 values. The assay condition included: hematocrit at 2%, initial parasitemia 0.5% and artesunate and pyrimethamine were used as positive control. The fluorescence of each well is measured. The EC50 value of each compound was assessed in at least two independent experiments.
(§1) were tested in vitro against the intraerythrocytic form of the parasite Plasmodium falciparum K1 (chloroquine-resistant strain) and Plasmodium falciparum 31D7 (chloroquine-sensitive strain). The selectivity index (SI) was determined as the ration between EC50 against murine macrophages or HepG2 cells and the EC50 against P. falciparum. In the following Table 1 is shown the results of the EC50 obtained for each of the tested compounds against P. falciparum K1 (P. f. K1) and P. falciparum 3D7 (P. f. 3D7) and the SI calculated.

Data set [2] has as its system P. falciparum 3D7 strain. The data set is described as follows: Killing rates assay, P. falciparum 3D7 intraerythrocytic form. The class given is cell-based, Plasmodium falciparum. The method, then: The assay was performed in P. falciparum 3D7 strain in its intraerythrocytic form. […] Each compound was renewed (washing the parasites and adding culture media and the compound again) after the first 24 hours of treatment.

In data set [3] the test system is P. falciparum K1 (chloroquine-resistant strain). The data set is described as follows: microbe, parasite or virus in culture. On the procedure:
For the in vitro study of the antimalarial activity against P. falciparum K1, this strain originating from Thailand that is resistant to chloroquine and pyrimethamine but sensitive to mefloquine was used. The cultures are naturally asynchronous (65-75% ring stage) and are maintained in continuous log phase growth in RPM11640 medium supplemented with 5% washed human A+erythrocytes, 25 mM HEPES, […] NaHCO3, and AlbuMAXII (lipid-rich bovine serum albumin) (GIBCO, Grand Island, N.Y.) (CM). All cultures and assays are conducted at 37° C. under an atmosphere of 5% CO2 and 5% 02, with a balance of N2.
For drug sensitivity assays, tock drug solutions are prepared in 100% DMSO (dimethylsulfoxide) at 20 mM. The compound is further diluted to the appropriate concentration using complete medium RPM11640 supplemented with 15 nM cold hypoxanthine and AlbuMAXII. Assays are performed in sterile 96-well microtitre plates, each plate contains […] of parasite culture (0.5% parasitemia, 2.5% hematocrit). Each drug is tested in triplicate and parasite growth is compared to control and blank (uninfected erythrocytes) wells. After 24 h of incubation at 37° C., 3.7 Bq of [3H]hypoxanthine is added to each well. Cultures are incubated for a further 24 h before they are harvested onto glass-fiber filter mats. The radioactivity is counted using a Wallac Microbeta 1450 scintillation counter. […] The percentage inhibition is calculated from comparison of blank and control wells, and EC50 values are calculated using Prism™. Screen. The K1 line is used. The compound is diluted threefold over 12 different concentrations with an appropriate starting concentration. The EC50 is determined by a sigmoidal dose-response analysis using Prism™. For each assay, the EC50 value for the parasite line is determined against the known antimalarials chloroquine and artesunate, plus other standard compounds appropriate for the assay.
were tested in vitro against the intraerythrocytic form of the parasite Plasmodium falciparum K1 (chloroquine-resistant strain) and Plasmodium falciparum 31D7 (chloroquine-sensitive strain). The selectivity index (SI) was determined as the ration between EC50 against murine macrophages or HepG2 cells and the EC50 against P. falciparum.

The subject of data set [4] is Plasmodium sp. As to conditions: background statement, strain not stated; cited from earlier work.
Data set [5] concerns P. b. (liver st). In words: Biological activity in vitro against the hepatic form of the parasite. The class given is cell-based, P. berghei.
For data set [6], the system named is murine macrophages or HepG2 cells. The data set is described as follows: Selectivity index: EC50 against murine macrophages or HepG2 cells over EC50 against P. falciparum. The class given is cell-based. As to conditions: ratio of EC50 against murine macrophages or HepG2 cells to EC50 against P. falciparum. The method, then: as §1
Data set [7] can be described thus: Plasma pharmacokinetics after single oral administration. Format: in vivo, male Swiss Albino mice. On the procedure: The objective of this study was to investigate the plasma pharmacokinetics of the compound CF-88 in male Swiss Albino mice following a single oral administration. Nine animals were used in this study as Group 1 (PO: 50 mg/kg). Animals were administered with solution formulation of CF-88 in 3% DMSO and RPMI medium via oral route at 50 mg/kg. The blood samples were collected from set of three mice at each time point in labeled micro centrifuge tube containing K2EDTA solution as anticoagulant at 0.25, 0.5, 1, 2, 4, 6, 8, 12 and 24 hr. Plasma samples were separated by centrifugation of whole blood and stored below −70±10° C. until bioanalysis. All samples were processed for analysis by protein precipitation using acetonitrile and analyzed with fit-for-purpose LC-MS/MS method (LLOQ=5.16 ng/mL). Pharmacokinetic parameters were calculated using the non-compartmental analysis tool of Phoenix WinNonlin® (Version 7.0).
For the preparation of the oral formulation accurately weighed 19.93 mg of compound for PO dosing was added in a labeled bottle. The volume 0.112 mL of DMSO was added and vortexed. The volume 3.617 mL of RPMI medium was added and vortexed. The final formulation (5 mg/mL) was vortexed for 2 minutes to get finely suspended formulation.
After preparation of formulations, a volume of 200 μL was aliquoted for analysis. […] Formulations were prepared freshly prior to dosing.
Blood samples (approximately 60 μL) were collected from retro-orbital plexus of three mice at 0.25, 0.5, 1, 2, 4, 6, 8, 12 and 24 hr. Samples were collected into labeled micro-tubes, containing K2EDTA solution (20% K2EDTA solution) as an anticoagulant. Plasma was immediately harvested from the blood by centrifugation at 4000 rpm for 10 min at 4±2° C. and stored below −70° C. until bioanalysis.

Data set [8] concerns P. berghei. In words: Anti-malarial activity in vivo in mice inoculated with P. berghei. The settings on record: 50 mg/Kg oral, 3 consecutive days.
Where [9] appears, read: 0 hrs of treatment, compound at 10×EC50.
Setting [10] is: 24 hrs of treatment, compound at 10×EC50 (CF89 500 nM, SP79 30 nM).
Setting [11] is: 48 hrs of treatment, compound renewed after 24 hrs, 10×EC50.
Setting [12] is: Plasmodium falciparum, K1, read-out: EC50 P. f. K1.
Where [13] appears, read: intraerythrocytic form, chloroquine-sensitive strain, read-out: EC50 P. f. 3D7.
Where [14] appears, read: read-out: EC50 P. f. K1, intraerythrocytic form, chloroquine-resistant strain.
Where [15] appears, read: male, Swiss Albino, mouse, in vivo, po, 50 mg/kg.
The mark [16] stands for this setting: male, Swiss Albino, mouse, plasma, PO 50 mg/kg, 12 hrs after administration, read-out: plasma concentration at 12 hrs.

Where two headings read alike, the source gives them in different places. Where a SMILES comes first, the peptide text is derived from it. [ ]: non-standard residue; d: D form. The star is where a group is joined. Trt = c1ccc(C(c2ccccc2)(c2ccccc2)*)cc1; Sar = CNCC(=O)O; tBu = CC(C)(C)*

As usually defined, the EC50 is the concentration giving half of the maximal effect. A word on the Cmax: it is the peak of the concentration-time curve. As usually defined, the EC90 is the concentration at which the effect reaches the 90% level. High values mean weaker potency, low ones greater potency.

For `C[C@H]1[C@H](OC(=O)CCC(=O)O)O[C@@H]2O[C@@]3(C)CC[C@H]4[C@H](C)CC[C@@H]1[C@@]24OO3` [Artesunate], the half-maximal effective concentration (EC50) in data set [1] (Plasmodium falciparum, 3D7, read-out: EC50 P. f. 3D7) is 5 nM; in data set [3] (setting [12]) it was 3 nM; in data set [4], 5 nM. Moreover, the Survival % turned out to be 100% in data set [2] (setting [9]), 10.01% in data set [2] (setting [10]) and 8.59% in data set [2] (setting [11]).

`C[C@@H]1CC[C@H]2[C@@H](C)C(=O)O[C@@H]3O[C@@]4(C)CC[C@@H]1[C@]32OO4` [Artemisinine, reference compound]: the EC50 in data set [3] (setting [12]) and in data set [4] was 20 nM in each case.

Turning to `C[C@@H](OC(C)(C)C)[C@@H]1NC(=O)CN(C)C(=O)[C@H](CSC(c2ccccc2)(c2ccccc2)c2ccccc2)NC(=O)CN(C)C(=O)[C@H](CSC(c2ccccc2)(c2ccccc2)c2ccccc2)NC(=O)CN(C)C1=O` [SP79, Cycle-NMe-Gly-L-Thr(^t-Bu)-NMe-Gly-L-Cys(Trt)-NMe-Gly-L-Cys(Trt)] (cyclo(C(Trt)[Sar]C(Trt)[Sar]T(tBu)[Sar])), the EC50 in data set [1] (setting [13]) was determined as 1 nM; in data set [5], 18.6 nM; in data set [3] (setting [14]) it was 0.7 nM. Also, the Survival % in data set [2] (setting [9]) was found to be 100%; in data set [2] (setting [10]), 83.74%; in data set [2] (setting [11]), 57.48%. The SI in data set [6] is more than 140000.

Regarding `C[C@@H](OC(C)(C)C)[C@@H]1NC(=O)CN(C)C(=O)[C@H](CSC(c2ccccc2)(c2ccccc2)c2ccccc2)NC(=O)CNC(=O)[C@H](CSC(c2ccccc2)(c2ccccc2)c2ccccc2)NC(=O)CN(C)C1=O` [CF88, Cycle-NMe-Gly-L-Thr(^t-Bu)-NMe-Gly-L-Cys(Trt)-Gly-L-Cys(Trt)] (cyclo(C(Trt)GC(Trt)[Sar]T(tBu)[Sar])), in data set [1] (setting [13]), the concentration for a half-maximal effect (EC50) is 0.25 nM. Further, the “clinical signs after oral administration” value in data set [7] (PO 50 mg/kg single dose) is listed as “all animals were normal without any clinical signs”. Besides, the t1/2 in data set [7] (PO 50 mg/kg, plasma, 4, 6, 8 and 12 hr time points considered (r^2 = 0.7325)) was 4.93 h. In data set [7] (PO 50 mg/kg, time after administration), the “detected in plasma up to” value amounted to 12 h. Further, the “detection in plasma at 24 hrs” value in data set [7] (PO 50 mg/kg, LLOQ 5.16 ng/mL) was “no detection”. In data set [7] (setting [15]), this compound showed an AUCinf of 390.71, an AUClast of 314.79, a Cmax of 61.13 ng/mL and a tmax of 2 h. In data set [7] (setting [16]), the level at 12 h amounted to 10.8 ng/mL and the level at time molar at 12 h turned out to be 10 nM. The Days of survival in data set [8] is 25 ± 7 days. Moreover, the Parasitemia in data set [8] (Day 5) is reported as 0.9 ± 0.7. Also, in data set [8] (Day 7), the Parasitemia was 1.7 ± 0.3 and the “Parasitemia (reduction %)” value was “(46 ± 10%)”. In addition, in data set [8] (Day 9), the Parasitemia turned out to be 6 ± 1 and the “Parasitemia (reduction %)” value is given as “(33 ± 10%)”. The compound further had an EC90 in data set [3] (against P. falciparum K1) of 1 nM. Further, the 50% effective concentration (EC50) in data set [3] (setting [14]) stood at 0.008 nM. Also, the SI in data set [6] is listed as >1 × 10^6.

(Values after patent publication US20210130411A1, “CYCLIC HEXAPEPTIDES COMPOUNDS WITH ANTI-MALARIAL ACTIVITY” (priority 2018, published 2021).)
